According to ChEMBL document CHEMBL4507302, “Data for DCP probe TP-020” (2021):

Tests used:
[1] = test system: Tyrosine-protein kinase ABL1 (Homo sapiens), P00519 [F317I]; settings: Compound concentration 1000.0 nM
[2] = test system: Tyrosine-protein kinase ABL1 (Homo sapiens), P00519 [F317L]; settings: Compound concentration 1000.0 nM
[3] = test system: Tyrosine-protein kinase ABL1 (Homo sapiens), P00519 [T315I]; settings: Compound concentration 1000.0 nM
[4] = target: RAC-gamma serine/threonine-protein kinase (Homo sapiens) (UniProt Q9Y243); settings: Compound concentration 1000.0 nM
Chain of RAC-gamma serine/threonine-protein kinase (Homo sapiens) (Q9Y243 whole entry): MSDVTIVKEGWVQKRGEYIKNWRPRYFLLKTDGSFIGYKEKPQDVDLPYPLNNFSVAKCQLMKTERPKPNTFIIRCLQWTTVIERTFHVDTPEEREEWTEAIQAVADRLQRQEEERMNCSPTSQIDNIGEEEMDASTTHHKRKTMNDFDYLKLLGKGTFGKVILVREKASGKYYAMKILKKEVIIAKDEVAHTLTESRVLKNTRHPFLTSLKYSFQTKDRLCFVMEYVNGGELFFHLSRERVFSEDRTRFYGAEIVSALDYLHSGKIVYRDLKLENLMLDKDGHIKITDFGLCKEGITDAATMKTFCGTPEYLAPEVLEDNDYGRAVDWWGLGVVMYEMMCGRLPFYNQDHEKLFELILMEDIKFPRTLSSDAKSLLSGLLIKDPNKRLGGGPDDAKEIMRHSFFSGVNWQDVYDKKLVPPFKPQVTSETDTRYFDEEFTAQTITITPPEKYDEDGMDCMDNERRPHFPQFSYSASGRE

[5] = target: Aurora kinase C (Homo sapiens) (UniProt Q9UQB9); settings: Compound concentration 1000.0 nM
[6] = target: Cyclin-dependent kinase 13 (Homo sapiens) (UniProt Q14004); settings: Compound concentration 1000.0 nM
Chain of Cyclin-dependent kinase 13 (Homo sapiens) (Q14004 whole entry, looked up): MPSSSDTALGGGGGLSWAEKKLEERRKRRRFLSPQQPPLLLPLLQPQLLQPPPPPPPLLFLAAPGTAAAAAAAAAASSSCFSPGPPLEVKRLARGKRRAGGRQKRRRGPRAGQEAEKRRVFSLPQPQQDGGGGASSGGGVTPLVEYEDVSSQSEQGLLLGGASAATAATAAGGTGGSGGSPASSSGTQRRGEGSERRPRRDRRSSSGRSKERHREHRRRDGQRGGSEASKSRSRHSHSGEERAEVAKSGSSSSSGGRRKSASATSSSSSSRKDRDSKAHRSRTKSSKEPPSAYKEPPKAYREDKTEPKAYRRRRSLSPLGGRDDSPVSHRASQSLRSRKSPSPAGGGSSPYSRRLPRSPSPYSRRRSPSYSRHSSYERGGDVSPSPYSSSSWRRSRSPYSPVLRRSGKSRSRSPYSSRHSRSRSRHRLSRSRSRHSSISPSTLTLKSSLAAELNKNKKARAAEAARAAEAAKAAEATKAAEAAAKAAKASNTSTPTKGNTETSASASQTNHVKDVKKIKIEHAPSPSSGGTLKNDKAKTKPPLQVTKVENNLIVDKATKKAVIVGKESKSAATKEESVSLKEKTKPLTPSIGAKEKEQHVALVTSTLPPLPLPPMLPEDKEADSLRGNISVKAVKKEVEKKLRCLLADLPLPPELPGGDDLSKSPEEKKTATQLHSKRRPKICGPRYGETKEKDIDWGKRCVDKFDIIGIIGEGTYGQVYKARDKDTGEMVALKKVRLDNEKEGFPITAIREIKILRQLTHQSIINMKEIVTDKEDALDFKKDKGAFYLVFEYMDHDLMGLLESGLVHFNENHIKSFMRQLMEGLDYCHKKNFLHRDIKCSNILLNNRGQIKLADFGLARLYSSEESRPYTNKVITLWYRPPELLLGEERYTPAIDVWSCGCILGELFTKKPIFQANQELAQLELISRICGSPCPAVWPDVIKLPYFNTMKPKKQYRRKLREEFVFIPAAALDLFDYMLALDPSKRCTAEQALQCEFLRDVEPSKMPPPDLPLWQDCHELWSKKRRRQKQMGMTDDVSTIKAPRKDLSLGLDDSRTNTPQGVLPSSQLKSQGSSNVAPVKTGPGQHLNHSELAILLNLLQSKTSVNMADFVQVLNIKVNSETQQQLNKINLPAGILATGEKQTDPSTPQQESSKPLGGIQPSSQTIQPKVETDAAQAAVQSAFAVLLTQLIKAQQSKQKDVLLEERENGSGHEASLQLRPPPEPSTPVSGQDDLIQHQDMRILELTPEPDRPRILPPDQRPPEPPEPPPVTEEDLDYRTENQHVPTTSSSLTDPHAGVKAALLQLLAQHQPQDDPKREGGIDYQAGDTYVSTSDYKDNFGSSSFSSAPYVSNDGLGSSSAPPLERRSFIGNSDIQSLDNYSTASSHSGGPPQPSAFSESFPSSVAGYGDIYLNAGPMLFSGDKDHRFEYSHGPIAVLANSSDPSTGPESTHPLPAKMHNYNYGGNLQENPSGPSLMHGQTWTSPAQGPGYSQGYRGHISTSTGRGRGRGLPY

[7] = target: Dual specificity protein kinase CLK1 (Homo sapiens) (UniProt P49759); settings: Compound concentration 1000.0 nM
[8] = target: Casein kinase I isoform alpha (Homo sapiens) (UniProt P48729); settings: Compound concentration 1000.0 nM
[9] = target: Serine/threonine-protein kinase 17A (Homo sapiens) (UniProt Q9UEE5); settings: Compound concentration 1000.0 nM
Chain of Serine/threonine-protein kinase 17A (Homo sapiens) (Q9UEE5 whole entry): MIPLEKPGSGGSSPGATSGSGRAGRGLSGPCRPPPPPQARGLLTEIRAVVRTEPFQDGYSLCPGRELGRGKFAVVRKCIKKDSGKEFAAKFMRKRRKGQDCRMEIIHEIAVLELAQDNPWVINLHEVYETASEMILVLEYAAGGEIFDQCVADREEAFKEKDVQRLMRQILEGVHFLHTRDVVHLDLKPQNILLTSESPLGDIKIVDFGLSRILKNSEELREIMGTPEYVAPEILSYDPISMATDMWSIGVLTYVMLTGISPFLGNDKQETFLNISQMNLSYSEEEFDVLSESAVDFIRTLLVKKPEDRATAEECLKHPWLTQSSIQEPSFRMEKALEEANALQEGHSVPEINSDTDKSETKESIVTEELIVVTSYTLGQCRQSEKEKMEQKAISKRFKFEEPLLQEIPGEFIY

[10] = test system: Epidermal growth factor receptor (Homo sapiens), P00533 [L858R]; settings: Compound concentration 1000.0 nM
[11] = test system: Epidermal growth factor receptor (Homo sapiens), P00533 [T790M]; settings: Compound concentration 1000.0 nM
[12] = target: Eukaryotic translation initiation factor 2-alpha kinase 1 (Homo sapiens) (UniProt Q9BQI3); settings: Compound concentration 1000.0 nM
[13] = target: Ephrin type-A receptor 6 (Homo sapiens) (UniProt Q9UF33); settings: Compound concentration 1000.0 nM
[14] = target: Mitogen-activated protein kinase 3 (Homo sapiens) (UniProt P27361); settings: Compound concentration 1000.0 nM
[15] = test system: Receptor-type tyrosine-protein kinase FLT3 (Homo sapiens), P36888 [N841I]; settings: Compound concentration 1000.0 nM
[16] = target: Cyclin-G-associated kinase (Homo sapiens) (UniProt O14976); settings: Compound concentration 1000.0 nM
[17] = target: Beta-adrenergic receptor kinase 1 (Homo sapiens) (UniProt P25098); settings: Compound concentration 1000.0 nM
[18] = target: Rhodopsin kinase GRK7 (Homo sapiens) (UniProt Q8WTQ7); settings: Compound concentration 1000.0 nM
[19] = target: Hormonally up-regulated neu tumor-associated kinase (Homo sapiens) (UniProt P57058); settings: Compound concentration 1000.0 nM
[20] = target: Inhibitor of nuclear factor kappa-B kinase subunit beta (Homo sapiens) (UniProt O14920); settings: Compound concentration 1000.0 nM
Chain of Inhibitor of nuclear factor kappa-B kinase subunit beta (Homo sapiens) (O14920 whole entry): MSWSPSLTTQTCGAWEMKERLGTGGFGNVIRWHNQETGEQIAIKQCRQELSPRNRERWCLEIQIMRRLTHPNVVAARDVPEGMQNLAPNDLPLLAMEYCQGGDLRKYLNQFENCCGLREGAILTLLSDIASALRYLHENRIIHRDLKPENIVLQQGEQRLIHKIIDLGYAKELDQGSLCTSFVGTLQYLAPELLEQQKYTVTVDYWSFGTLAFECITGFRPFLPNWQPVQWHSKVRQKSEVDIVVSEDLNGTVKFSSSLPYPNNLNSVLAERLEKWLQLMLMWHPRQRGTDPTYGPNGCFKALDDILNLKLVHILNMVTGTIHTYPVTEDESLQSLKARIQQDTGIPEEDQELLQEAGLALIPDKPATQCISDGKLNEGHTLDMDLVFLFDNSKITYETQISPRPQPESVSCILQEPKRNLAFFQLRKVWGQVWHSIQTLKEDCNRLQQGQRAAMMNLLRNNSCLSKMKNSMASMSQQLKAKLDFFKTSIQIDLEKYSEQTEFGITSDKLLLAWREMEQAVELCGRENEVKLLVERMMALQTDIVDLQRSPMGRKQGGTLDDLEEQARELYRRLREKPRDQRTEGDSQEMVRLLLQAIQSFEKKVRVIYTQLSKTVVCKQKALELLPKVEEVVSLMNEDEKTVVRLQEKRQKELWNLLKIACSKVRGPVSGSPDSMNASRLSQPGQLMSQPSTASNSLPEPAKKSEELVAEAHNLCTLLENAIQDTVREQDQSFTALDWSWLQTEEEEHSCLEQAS

[21] = target: Leucine-rich repeat serine/threonine-protein kinase 2 (Homo sapiens) (UniProt Q5S007); settings: Compound concentration 1000.0 nM
[22] = target: Mitogen-activated protein kinase kinase kinase kinase 5 (Homo sapiens) (UniProt Q9Y4K4); settings: Compound concentration 1000.0 nM
[23] = target: Serine/threonine-protein kinase 26 (Homo sapiens) (UniProt Q9P289); settings: Compound concentration 1000.0 nM
[24] = target: Serine/threonine-protein kinase Nek7 (Homo sapiens) (UniProt Q8TDX7); settings: Compound concentration 1000.0 nM
Chain of Serine/threonine-protein kinase Nek7 (Homo sapiens) (Q8TDX7 whole entry, looked up): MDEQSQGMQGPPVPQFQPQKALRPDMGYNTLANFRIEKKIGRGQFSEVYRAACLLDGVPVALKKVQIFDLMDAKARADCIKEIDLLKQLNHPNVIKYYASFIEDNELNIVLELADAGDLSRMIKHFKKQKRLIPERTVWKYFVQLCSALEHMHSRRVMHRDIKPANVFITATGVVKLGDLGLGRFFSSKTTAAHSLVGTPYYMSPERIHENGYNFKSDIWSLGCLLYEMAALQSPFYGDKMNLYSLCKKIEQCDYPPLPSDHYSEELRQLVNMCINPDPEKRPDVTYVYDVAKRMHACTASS

[25] = target: Mitogen-activated protein kinase 13 (Homo sapiens) (UniProt O15264); settings: Compound concentration 1000.0 nM
[26] = target: Serine/threonine-protein kinase PAK 5 (Homo sapiens) (UniProt Q9P286); settings: Compound concentration 1000.0 nM
[27] = target: Phosphatidylinositol 4,5-bisphosphate 3-kinase catalytic subunit alpha isoform (Homo sapiens) (UniProt P42336); settings: Compound concentration 1000.0 nM
[28] = target: Serine/threonine-protein kinase pim-3 (Homo sapiens) (UniProt Q86V86); settings: Compound concentration 1000.0 nM
[29] = target: Serine/threonine-protein kinase PLK1 (Homo sapiens) (UniProt P53350); settings: Compound concentration 1000.0 nM
[30] = target: Protein kinase C delta type (Homo sapiens) (UniProt Q05655); settings: Compound concentration 1000.0 nM
[31] = target: Protein kinase C eta type (Homo sapiens) (UniProt P24723); settings: Compound concentration 1000.0 nM
[32] = test system: Proto-oncogene tyrosine-protein kinase receptor Ret (Homo sapiens), P07949 [M918T]; settings: Compound concentration 1000.0 nM
[33] = test system: Proto-oncogene tyrosine-protein kinase receptor Ret (Homo sapiens), P07949 [V804M]; settings: Compound concentration 1000.0 nM
[34] = target: Receptor-interacting serine/threonine-protein kinase 4 (Homo sapiens) (UniProt P57078); settings: Compound concentration 1000.0 nM
[35] = target: Serine/threonine-protein kinase SBK1 (Homo sapiens) (UniProt Q52WX2); settings: Compound concentration 1000.0 nM
Chain of Serine/threonine-protein kinase SBK1 (Homo sapiens) (Q52WX2 whole entry): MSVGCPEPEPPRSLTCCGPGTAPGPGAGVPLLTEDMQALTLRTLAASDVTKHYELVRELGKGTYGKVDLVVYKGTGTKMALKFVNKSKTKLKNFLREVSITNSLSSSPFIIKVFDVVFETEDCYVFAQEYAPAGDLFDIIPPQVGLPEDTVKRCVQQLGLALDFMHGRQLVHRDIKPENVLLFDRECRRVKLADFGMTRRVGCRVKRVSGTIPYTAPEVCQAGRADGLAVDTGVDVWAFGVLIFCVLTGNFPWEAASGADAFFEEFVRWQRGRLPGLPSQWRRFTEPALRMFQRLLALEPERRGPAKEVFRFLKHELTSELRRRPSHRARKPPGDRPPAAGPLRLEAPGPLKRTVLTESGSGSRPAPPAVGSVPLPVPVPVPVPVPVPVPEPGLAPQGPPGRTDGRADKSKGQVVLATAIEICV

[36] = target: Serine/threonine-protein kinase SIK2 (Homo sapiens) (UniProt Q9H0K1); settings: Compound concentration 1000.0 nM
[37] = target: SRSF protein kinase 3 (Homo sapiens) (UniProt Q9UPE1); settings: Compound concentration 1000.0 nM
[38] = target: Serine/threonine-protein kinase 36 (Homo sapiens) (UniProt Q9NRP7); settings: Compound concentration 1000.0 nM
[39] = target: Tyrosine-protein kinase receptor Tie-1 (Homo sapiens) (UniProt P35590); settings: Compound concentration 1000.0 nM
[40] = target: BDNF/NT-3 growth factors receptor (Homo sapiens) (UniProt Q16620); settings: Compound concentration 1000.0 nM
[41] = target: Dual specificity protein kinase TTK (Homo sapiens) (UniProt P33981); settings: Compound concentration 1000.0 nM
[42] = target: Non-receptor tyrosine-protein kinase TYK2 (Homo sapiens) (UniProt P29597); settings: Compound concentration 1000.0 nM
Chain of Non-receptor tyrosine-protein kinase TYK2 (Homo sapiens) (P29597 whole entry): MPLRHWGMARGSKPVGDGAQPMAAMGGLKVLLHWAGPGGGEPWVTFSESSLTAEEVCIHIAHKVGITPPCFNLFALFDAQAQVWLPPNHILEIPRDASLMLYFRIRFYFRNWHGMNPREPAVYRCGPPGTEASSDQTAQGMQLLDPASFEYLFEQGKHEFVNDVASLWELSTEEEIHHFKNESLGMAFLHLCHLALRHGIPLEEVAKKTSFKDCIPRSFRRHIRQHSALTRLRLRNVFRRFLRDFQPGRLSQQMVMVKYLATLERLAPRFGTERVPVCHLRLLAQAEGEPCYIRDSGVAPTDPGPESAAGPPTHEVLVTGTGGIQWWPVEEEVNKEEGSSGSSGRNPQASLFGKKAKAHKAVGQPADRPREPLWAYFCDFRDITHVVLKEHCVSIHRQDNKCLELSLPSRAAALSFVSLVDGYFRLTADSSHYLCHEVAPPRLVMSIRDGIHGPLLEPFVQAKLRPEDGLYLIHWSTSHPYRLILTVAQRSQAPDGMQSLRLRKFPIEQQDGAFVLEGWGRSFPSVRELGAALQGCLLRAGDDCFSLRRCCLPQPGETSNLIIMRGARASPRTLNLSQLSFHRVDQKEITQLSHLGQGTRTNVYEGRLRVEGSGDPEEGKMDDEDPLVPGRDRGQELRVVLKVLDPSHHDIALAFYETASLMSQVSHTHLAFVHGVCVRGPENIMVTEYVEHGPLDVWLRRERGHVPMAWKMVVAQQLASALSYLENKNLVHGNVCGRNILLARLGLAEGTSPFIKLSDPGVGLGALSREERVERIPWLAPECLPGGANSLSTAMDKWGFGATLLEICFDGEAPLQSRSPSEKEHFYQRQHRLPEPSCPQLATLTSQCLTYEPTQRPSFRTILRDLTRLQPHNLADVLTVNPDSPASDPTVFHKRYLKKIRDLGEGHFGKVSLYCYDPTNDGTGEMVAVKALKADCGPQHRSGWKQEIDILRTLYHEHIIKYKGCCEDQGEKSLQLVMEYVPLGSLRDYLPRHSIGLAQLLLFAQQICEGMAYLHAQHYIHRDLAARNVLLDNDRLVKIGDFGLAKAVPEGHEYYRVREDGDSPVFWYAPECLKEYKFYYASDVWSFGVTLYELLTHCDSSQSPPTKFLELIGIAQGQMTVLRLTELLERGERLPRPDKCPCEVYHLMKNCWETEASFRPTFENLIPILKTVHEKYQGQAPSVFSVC

[43] = target: Serine/threonine-protein kinase ULK2 (Homo sapiens) (UniProt Q8IYT8); settings: Compound concentration 1000.0 nM
[44] = target: Serine/threonine-protein kinase 32B (Homo sapiens) (UniProt Q9NY57); settings: Compound concentration 1000.0 nM
[45] = target: Delta-type opioid receptor (Homo sapiens) (UniProt P41143); settings: Compound concentration 10.0 uM
Rattus norvegicus = species: Rattus norvegicus; settings: Compound concentration 10.0 uM

Nc1cnc(N2CCc3cc(S(=O)(=O)Nc4c(F)cc(Cl)cc4F)cc(N4CCCC4=O)c32)nc1
inactive: residual activity [1] 100% | residual activity [2] 78% | residual activity [3] 100% | residual activity [4] 94% | residual activity [5] 100% | residual activity [6] 100% | residual activity [7] 85% | residual activity [8] 100% | residual activity [9] 100% | residual activity [10] 85% | residual activity [11] 88% | residual activity [12] 94% | residual activity [13] 98% | residual activity [14] 91% | residual activity [15] 89% | residual activity [16] 100% | residual activity [17] 100% | residual activity [18] 99% | residual activity [19] 99% | residual activity [20] 96% | residual activity [21] 97% | residual activity [22] 73% | residual activity [23] 83% | residual activity [24] 96% | residual activity [25] 100% | residual activity [26] 90% | residual activity [27] 76% | residual activity [28] 98% | residual activity [29] 100% | residual activity [30] 86% | residual activity [31] 80% | residual activity [32] 100% | residual activity [33] 100% | residual activity [34] 76% | residual activity [35] 83% | residual activity [36] 100% | residual activity [37] 100% | residual activity [38] 98% | residual activity [39] 100% | residual activity [40] 100% | residual activity [41] 90% | residual activity [42] 100% | residual activity [43] 100% | residual activity [44] 74% | inhibition [45] -1.24% | inhibition (Rattus norvegicus) -2.65%

Cn1nc(C(F)(F)F)cc1-c1cnc(N2CCc3cc(S(=O)(=O)Nc4c(F)cc(Cl)cc4F)cc(N4CCCC4=O)c32)nc1 [TP-020]
inactive: residual activity [1] 85% | residual activity [2] 94% | residual activity [3] 74% | residual activity [4] 84% | residual activity [5] 100% | residual activity [6] 79% | residual activity [7] 87% | residual activity [8] 86% | residual activity [9] 83% | residual activity [10] 100% | residual activity [11] 94% | residual activity [12] 100% | residual activity [13] 89% | residual activity [14] 100% | residual activity [15] 94% | residual activity [16] 94% | residual activity [17] 85% | residual activity [18] 85% | residual activity [19] 68% | residual activity [20] 81% | residual activity [21] 79% | residual activity [22] 88% | residual activity [23] 73% | residual activity [24] 100% | residual activity [25] 100% | residual activity [26] 100% | residual activity [27] 100% | residual activity [28] 100% | residual activity [29] 93% | residual activity [30] 95% | residual activity [31] 90% | residual activity [32] 100% | residual activity [33] 98% | residual activity [34] 67% | residual activity [35] 92% | residual activity [36] 100% | residual activity [37] 100% | residual activity [38] 100% | residual activity [39] 100% | residual activity [40] 75% | residual activity [41] 97% | residual activity [42] 90% | residual activity [43] 74% | residual activity [44] 95% | inhibition [45] 28.7% | inhibition (Rattus norvegicus) -9.93%
